Assay results: US12384756B2, “Piperidinedione derivatives” (INNOCURE THERAPEUTICS, INC., priority 2021, dated 2025)
Where two headings read alike, the source gives them in different places.

Legend:
Format in all cases: cell-based
BRD4 [1] = target: T1, BRD4 (Homo sapiens, UniProt O60885); assay: BRD4 degradation by western blot in A549 cells; design: BRD4 expressed in cells; endogenous in cells
Protocol: The human lung cancer cell line A549 was purchased from the Korean Cell Line Bank.
5×10^5 cells were seeded for each well of the 6 well plate (SPL company), and the cells were cultured with a total of 1.5 mL of the culture medium volume. The cultured cells were treated with various concentrations (0 nM, 0.1 nM, 0.3 nM, 1 nM, 3 nM, 10 nM, 30 nM, 100 nM, 300 nM, 1000 nM, 3000 nM, 10000 nM) of PROTAC compound according to the present invention and cultured for 24 hours.
For cell lysis, a lysis buffer was added and cell lysate was obtained using a cell scraper.
Specifically, cells were treated with 70 μl of 1×RIPA buffer containing protease inhibitors. Cell lysate was collected on ice using a scraper and incubated for 30 minutes. Then, cells were centrifuged at 4° C. 15,000 rpm for 30 minutes to obtain a cell lysate.
The standard curve was obtained using BCA assay, and the protein mass in the lysate was quantified by substituting the standard curve. The mixture was incubated at 37° C. for 30 minutes using a sample solution of 1 μl and a BCA solution of 200 μl. The absorbance was measured at 562 nm. Samples were prepared by adding a sample buffer to reach 10 μg per well.
SDS-PAGE was conducted by setting a running time of 70 minutes at 110 V in a 4-15% Mini-PROTEAN TGX stain-free gel (15 wells). A transfer was conducted using a trans-blot turbo transfer system (Bio-rad). Blocking was conducted using a blocking-grade blocker (Bio-rad) for 1 hour. Then, it was washed with 1×TBS containing 0.1% tween 20, and reacted with anti-BRD4 antibody (1:3000) or anti-beta-tubulin antibody (1:3000) in bovine serum albumin as a primary antibody at 4° C. for 16 hours. After washing three times for 10 minutes with 1×TBS containing 0.1% tween 20, it was reacted with anti-rabbit antibody (1:10000) in the blotting-grade blocker as a secondary antibody at room temperature for 1 hour. Then, after washing three times for 10 minutes with 1×TBS containing 0.1% tween 20, detection was conducted with SUPERSIGNAL™ WEST PICO PLUS chemiluminescence substrate.
For result analysis, final blot data were obtained using an image analyzer (GE).
DC50^1): DC50 value is calculated by comparing band intensity with that of a sample which is not treated with a PROTAC compound as a controlled group.
DC50^2): DC50 value is calculated by comparing the band intensity relative to that of beta-tubulin with that of the controlled group.

[2] = system: Human breast cancer cell line [MDA-MB-231]; assay: Anti-proliferative activity (WST-8) of BRD4 targeted PROTAC in MDA-MB-231; settings: MDA-MB-231, 72 hours
Protocol: (§1) Human breast cancer cell line [MDA-MB-231] was cultured in RPMI medium with 10% petal bovine serum, penicillin [100 U/ml] and streptomycin [[…]]. The synthesized compound was prepared as a stock solution of 10 mM or 50 mM dissolved in DMSO [dimethyl sulfoxide], and it was sequentially diluted to treat the cell line.
In order to observe inhibition of cell growth, cells were aliquoted into concentrations of 5,000 cells/well at 96 well plates, and then were treated with samples prepared at various concentrations for 72 hours. The cell survival was calculated by steps of adding in each well […] of water soluble tetrazolium salt (WST-8) which produces formazon in response to dehydrogenase present in the electron transport chain in mitochondria, incubating for 2 hours, measuring the absorbance at 450 nm, and calculating by GraphicPad Prism 8.0 software.

BRD4 [3] = target: T1, BRD4; assay: BRD4 protein degradation by western blot in MDA-MB-231 cells; design: BRD4 expressed in cells; endogenous in cells; host or cells: MDA-MB-231; settings: MDA-MB-231, 24 hours; for DC50: 50% inhibition of protein expression, read-out: DC50 of BRD4-targeted PROTAC
Protocol: as §1
To evaluate the PROTAC's degradation ability to BRD4 expressed in cells, the cells were aliquoted into a 6 well plate at a concentration of 5×10^5 cells/ml, and then the sample was treated for 24 hours. In order to conduct western blotting assay to confirm protein expression, the cell treated with the compound was treated for 30 minutes with 70 μL of RIPA buffer wherein protease inhibitor is added. Then, cell lysate was collected on ice using a scraper and centrifuged at 4° C. 15,000 rpm for 30 minutes to obtain a supernatant containing protein. Then, SDS-PAGE is conducted for 10 μg of protein per each sample, and the protein is transferred to a membrane. The protein is reacted with antibodies of anti-BRD4, anti-tubulin and anti-GAPDH at 4° C. for 16 hours, and then, reacted with secondary antibodies at room temperature for 1 hour. The protein expression is confirmed using SUPERSIGNAL™ WEST PICO PLUS chemiluminescence substrate and image analyzer. The protein expression was normalized based on the expression value of β-tublin or GAPDH. The amount of protein expression in each sample was measured in % based on the sample treated with 0.1% DMSO vehicle which was set to 100%. The amount of protein expression was quantified using the IMAGE J PROGRAM. The change in the amount of protein expression due to the treatment of compound (DC50: the concentration of compounds where the 50% inhibition of protein expression is achieved) was calculated using […] PRISM 8.0 software.

[4] = Homo sapiens, WST-8, read-out: IC50 of BRD4-targeted PROTAC (cell proliferation)
[5] = Homo sapiens, read-out: concentration at which cancer cell proliferation is effectively inhibited

Row | Molecule | DC50 (BRD4 [1]; A549, 24 hours; band intensity compared with untreated control; read-out: DC50 1)) | DC50 (BRD4 [1]; A549, 24 hours; band intensity relative to beta-tubulin compared with control; read-out: DC50 2)) | IC50 [2, 4] | IC50 [2, 5] | BRD4 degradation (in words) (BRD4 [3]) | DC50 (BRD4 [3]) | IC50 ([2]; WST-8, read-out: IC50 of BRD4-targeted PROTAC (cell proliferation))
1 | Cc1sc2c(c1C)C(c1ccc(Cl)cc1)=N[C@@H](CC(=O)NCOCCOCCOCCNc1cccc3cnn(C4CCC(=O)NC4=O)c(=O)c13)c1nnc(C)n1-2 (stereo partly drawn) [Ex. 21, 2-((S)-4-(4-chlorophenyl)-2,3,9-trimethyl-6H-thieno[3,2-f][1,2,4]triazolo[4,3-a][1,4]diazepin-6-yl)-N-((2-(2-(2-((3-(2,6-dioxopiperidin-3-yl)-4-oxo-3,4-dihydrophthalazin-5-yl)amino)ethoxy)ethoxy)ethoxy)methyl)acetamide] | 1600 nM | 242 nM |  |  |  |  | 
2 | Cc1sc2c(c1C)C(c1ccc(Cl)cc1)=N[C@@H](CC(=O)Nc1cccc(OCCOCCOCCNc3cccc4c(C)nn(C5CCC(=O)NC5=O)c(=O)c34)c1)c1nnc(C)n1-2 (stereo partly drawn) [Example 39, 2-((S)-4-(4-chlorophenyl)-2,3,9-trimethyl-6H-thieno[3,2-f][1,2,4]triazolo[4,3-a][1,4]diazepin-6-yl)-N-(3-(2-(2-(2-((3-(2,6-dioxopiperidin-3-yl)-1-methyl-4-oxo-3,4-dihydrophthalazin-5-yl)amino)ethoxy)ethoxy)ethoxy)phenyl)acetamide] |  |  | < 1 nM | < 250 nM | effectively degraded | 0.575 nM | 
3 | Cc1sc2c(c1C)C(c1ccc(Cl)cc1)=N[C@@H](CC(=O)NCC#Cc1ccc3c(=O)n(C4CCC(=O)NC4=O)ncc3c1)c1nnc(C)n1-2 (stereo partly drawn) [Example 40, 2-((S)-4-(4-chlorophenyl)-2,3,9-trimethyl-6H-thieno[3,2-f][1,2,4]triazolo[4,3-a][1,4]diazepin-6-yl)-N-(3-(2-(2,6-dioxopiperidin-3-yl)-1-oxo-1,2-dihydrophthalazin-6-yl)prop-2-yn-1-yl)acetamide] |  |  | 227 nM | < 250 nM | effectively degraded | 10.9 nM | 
4 | Cc1sc2c(c1C)C(c1ccc(Cl)cc1)=N[C@@H](CC(=O)Nc1cccc(OCCOCCOCCNc3ccc4c(=O)n(C5CCC(=O)NC5=O)ncc4c3)c1)c1nnc(C)n1-2 (stereo partly drawn) [Example 41, 2-((S)-4-(4-chlorophenyl)-2,3,9-trimethyl-6H-thieno[3,2-f][1,2,4]triazolo[4,3-a][1,4]diazepin-6-yl)-N-(3-(2-(2-(2-((2-(2,6-dioxopiperidin-3-yl)-1-oxo-1,2-dihydrophthaazin-6-yl)amino)ethoxy)ethoxy)ethoxy)phenyl)acetamide] |  |  | 137 nM | < 250 nM | effectively degraded | 4.4 nM | 
5 | Cc1sc2c(c1C)C(c1ccc(Cl)cc1)=N[C@@H](CC(=O)Nc1cccc(OCCOCCOCCNc3ccc4cnn(C5CCC(=O)NC5=O)c(=O)c4c3)c1)c1nnc(C)n1-2 (stereo partly drawn) [Example 42, 2-((S)-4-(4-chlorophenyl)-2,3,9-trimethyl-6H-thieno[3,2-f][1,2,4]triazolo[4,3-a][1,4]diazepin-6-yl)-N-(3-(2-(2-(2-((3-(2,6-dioxopiperidin-3-yl)-4-oxo-3,4-dihydrophthalazin-6-yl)amino)ethoxy)ethoxy)ethoxy)phenyl)acetamide] |  |  | 20.3 nM | < 250 nM | effectively degraded | 10.7 nM | 
6 | Cc1sc2c(c1C)C(c1ccc(Cl)cc1)=N[C@@H](CC(=O)NCCNc1cccc3cnn(C4CCC(=O)NC4=O)c(=O)c13)c1nnc(C)n1-2 (stereo partly drawn) [Example 43, 2-((S)-4-(4-chlorophenyl)-2,3,9-trimethyl-6H-thieno[3,2-f][1,2,4]triazolo[4,3-a][1,4]diazepin-6-yl)-N-(2-((3-(2,6-dioxopiperidin-3-yl)-4-oxo-3,4-dihydrophthalazin-5-yl)amino)ethyl)acetamide] |  |  | > 1000 nM |  |  | 185 nM | 
7 | Cc1sc2c(c1C)C(c1ccc(Cl)cc1)=N[C@@H](CC(=O)NCCNc1cccc3c(=O)n(C4CCC(=O)NC4=O)ncc13)c1nnc(C)n1-2 (stereo partly drawn) [Example 44, 2-((S)-4-(4-chlorophenyl)-2,3,9-trimethyl-6H-thieno[3,2-f][1,2,4]triazolo[4,3-a][1,4]diazepin-6-yl)-N-(2-((2-(2,6-dioxopiperidin-3-yl)-1-oxo-1,2-dihydrophthalazin-5-yl)amino)ethyl)acetamide] |  |  | > 1000 nM |  |  | 930 nM | 
8 | Cc1sc2c(c1C)C(c1ccc(Cl)cc1)=N[C@@H](CC(=O)NCCOc1cccc3cnn(C4CCC(=O)NC4=O)c(=O)c13)c1nnc(C)n1-2 (stereo partly drawn) [Example 45, 2-((S)-4-(4-chlorophenyl)-2,3,9-trimethyl-6H-thieno[3,2-f][1,2,4]triazolo[4,3-a][1,4]diazepin-6-yl)-N-(2-((3-(2,6-dioxopiperidin-3-yl)-4-oxo-3,4-dihydrophthalazin-5-yl)oxy)ethyl)acetamide] |  |  | > 1000 nM |  |  | 108 nM | 
9 | Cc1sc2c(c1C)C(c1ccc(Cl)cc1)=N[C@@H](CC(=O)NCCN1CCN(c3ccc4c(=O)n(C5CCC(=O)NC5=O)ncc4c3)CC1)c1nnc(C)n1-2 (stereo partly drawn) [Example 48, 2-((S)-4-(4-chlorophenyl)-2,3,9-trimethyl-6H-thieno[3,2-f][1,2,4]triazolo[4,3-a][1,4]diazepin-6-yl)-N-(2-(4-(2-(2,6-dioxopiperidin-3-yl)-1-oxo-1,2-dihydrophthalazin-6-yl)piperazin-1-yl)ethyl)acetamide] |  |  | 2.15 nM | < 250 nM | effectively degraded | 5.9 nM | 
10 | Cc1sc2c(c1C)C(c1ccc(Cl)cc1)=N[C@@H](CC(=O)NCCN1CCN(c3ccc4cnn(C5CCC(=O)NC5=O)c(=O)c4c3)CC1)c1nnc(C)n1-2 (stereo partly drawn) [Example 49, 2-((S)-4-(4-chlorophenyl)-2,3,9-trimethyl-6H-thieno[3,2-f][1,2,4]triazolo[4,3-a][1,4]diazepin-6-yl)-N-(2-(4-(3-(2,6-dioxopiperidin-3-yl)-4-oxo-3,4-dihydrophthalazin-6-yl)piperazin-1-yl)ethyl)acetamide] |  |  | 30.6 nM | < 250 nM | effectively degraded | 40.7 nM | 
11 | N-(4-(2-(2,6-dioxopiperidin-3-yl)-1-oxo-1,2-dihydrophthalazin-6-yl)butyl)-2-((S)-2,3,9-trimethyl-4-phenyl-6H-thieno[3,2-f][1,2,4]triazolo[4,3-a][1,4]diazepin-6-yl)acetamide [Example 47] |  |  |  |  |  | 52.3 nM | 754 nM
